For eleven compounds, pest or weed control and melting point results are on record in patent US7977512B2, “Amine derivative, and production method and use thereof” (Kureha Corporation, priority 2005, dated 2011).

Counter-ions that a name gives are not always drawn.

One data set concerns Pseudoperonospora cubensis. The data set can be described thus: Protection test of Pseudoperonospora cubensis on cucumber cotyledons. Format: in vivo. The settings on record: 144 h, spraying concentration 1000 ppm, water dispersible powder sprayed onto cucumber cotyledons (var. Sagami-Hanjiro) one day before inoculation, incidence scored six days after inoculation, read-out: Protective value. The protocol:
Water dispersible powders were prepared in the same manner as in Formulation Example 2 using the compound (2a), (2aa), (2b), (2ba), (15), (16), (17), (18), (19), or (20). The each water dispersible powder was diluted with water to a predetermined concentration (1000 mg/l) and suspended. The diluted suspension was sprayed onto cucumber cotyledons (var. Sagami-Hanjiro) grown in a rectangular plastic pot (6.4 cm×6.4 cm) at 100 1/10 a. After air-drying the sprayed leaves one day, a Pseudoperonospora cubensis spore suspension was sprayed onto the leaves to inoculate, and the leaves were maintained at 25° C. under high humidity conditions. After six days from the inoculation, the incidence of Pseudoperonospora cubensis was investigated according to the following criteria. The protective value is calculated according to the following equation 1.
Protective value(%)=(1−average incidence in sprayed area/average incidence in non-sprayed area)×100 [Equation 1]
As to `CCCN(CCC)CCCCNCc1ccc(C#N)cc1` [(2a), 4-[(4-dipropylaminobutyl)amino]methylbenzonitrile], the pest or weed control at 1000 ppm worked out at 100%.

On to `CCCN(CCC)CCCCN(C)Cc1ccc(C#N)cc1` [(2b), 4-[(4-dipropylaminobutyl)methylamino]methylbenzonitrile], for which the pest or weed control at 1000 ppm was 100%.

With `CCCN(CCC)CCCCN(Cc1ccc(Br)cc1)Cc1ccc(C#N)cc1` [(15), 4-{[(4-bromobenzyl)-(4-dipropylaminobutyl)amino]methyl}benzonitrile], the pest or weed control at 1000 ppm came to 100%.

For `CCCN(CCC)CCCCN(Cc1ccc(C#N)cc1)Cc1ccc(N(CC)CC)cc1` [(16), 4-{[(4-diethylaminobenzyl)-(4-dipropylaminobutyl)amino]methyl}benzonitrile], the pest or weed control at 1000 ppm stood at 100%.

As for `CCCN(CCC)CCCCN(Cc1ccc(C#N)cc1)Cc1ccc(C)o1` [(17), 4-{[(4-dipropylaminobutyl)-(5-methylfuran-2-ylmethyl)amino]methyl}benzonitrile], the pest or weed control at 1000 ppm is 100%.

In the case of `CCCN(CCC)CCCCN(Cc1ccc(C#N)cc1)Cc1ccc[nH]1` [(18), 4-{[(4-dipropylaminobutyl)-(1H-pyrrol-2-ylmethyl)amino]methyl}benzonitrile], the pest or weed control at 1000 ppm amounted to 100%.

As to `CCCN(CCC)CCCCN(Cc1ccc(C#N)cc1)Cc1ccc(OC)cc1` [(19), 4-{[(4-dipropylaminobutyl)-(4-methoxybenzyl)amino]-methyl}-benzonitrile], the pest or weed control at 1000 ppm was determined as 90%.

`CCCN(CCC)CCCCN(CC(=O)OCc1ccccc1)Cc1ccc(C#N)cc1` [(20), [(4-cyanobenzyl)-(4-dipropylaminobutyl)amino]benzyl acetate]: the pest or weed control at 1000 ppm was 100%.

Tested on in a further data set: not given
Assay: not given
Conditions: not given
As usually defined, the melting point is the temperature, or range, at which the solid turns liquid. Turning to `CCCN(CCC)CCCCN(CCOC(C)=O)Cc1ccc(CN)cc1.Cl`, the melting point lay within 105 to 106 °C.

As to `CCCN(CCC)CCCCNCc1ccc(CN)cc1.Cl`, the melting point lay within 205 to 210 °C.

Consider `CCCN(CCC)CCCCNCc1ccc(C#N)cc1` (as salt: hydrochloride) [(2aa), 4-[(4-dipropylaminobutyl)amino]methylbenzonitrile hydrochloride], for which the melting point lay in the range of 198 to 200 °C.
